Where no end group is shown, it is not given here.
Tests used:
Assay type in all cases: in vivo, mouse
[1] = tested on: ZO-1; experiment: Immunofluorescence of colon tight junction protein ZO-1; conditions: week 5; vs PBS control mice
Description: (§1) Immunofluorescence Imaging and Analysis. Immunofluorescence was conducted on sections from proximal colon samples frozen in OCT and sectioned. Slides were first thawed and outlined with a hydrophobic pen (ImmEdge Hydrophobic Barrier PAP Pen, Vector Labs, H-4000) then fixed with 4% paraformaldehyde for 10 min at room temperature. The slides were washed three times with wash buffer (1×PBS+100 mM CaCl2+100 mM MgCl) for 10 min at room temperature then incubated in a blocking solution containing 0.3% Triton X-100 and 10% normal donkey serum in 1×PBS+100 mM CaCl2+100 mM MgCl for 1 h at room temperature. The slides were then incubated in the primary antibodies (rat anti-ZO-1, clone R40.70, Fisher Scientific, MABT11; rabbit anti-occludin, clone EPR20992, Abcam, ab216327) diluted 1:100 in the blocking solution overnight at 4° C. The slides were washed three times with wash buffer for 10 min at room temperature. They were then incubated in the secondary antibodies (donkey anti-rat Alexa Fluor™ 568, Thermo Fisher, A78946; donkey anti-rabbit Alexa Fluor™ 647, Thermo Fisher, A31573) and nuclear marker DAPI diluted 1:500 in the blocking solution for 2 h at room temperature. […] The intensities of each marker were quantified using ImageJ and expressed as the integrated density of the fluorescent signal normalized to the area fraction of DAPI positive pixels. […]

[2] = tested on: occludin; experiment: Immunofluorescence of colon tight junction protein occludin; conditions: week 5; vs PBS control mice
Description: as §1

[3] = tested on: C57BL/6 mice; experiment: Chronic DSS-induced colitis, prophylactic immunization
Text: DSS-Induced Colitis and Assessment. Before inducing colitis, mice from each treatment group were divided amongst the cages to avoid any cage-related disease effects. This excluded the PBS without DSS (healthy) control mice which remained in their own cage and received normal drinking water for the duration of the experiment. Colitis was induced by administering 2% (w/v) colitis-grade dextran sodium sulfate (MP Biomedicals, 160110) in drinking water. For determination of prophylactic immunization efficacy, mice were immunized i.p. 3 times at days −35, −21 and −7 before colitis induction on Day 0. Chronic colitis was induced via DSS-containing water given for 5 days followed by 5 days of normal drinking water for 3 cycles, resulting in a 30-day model. A shorter, acute DSS-induced colitis model consisting of one cycle of colitis was achieved by giving 5 days of 2% DSS in water followed by 5 days of normal drinking water for a total of 10 days and was also examined in a preventative immunization scenario. Mice were weighed daily and evaluated for the IACUC approved humane endpoint of >30% weight loss as DSS mice regain weight quickly after DSS administration ceases. They were also monitored for occult blood with Hemoccult tape and developer (Beckman Coulter, 63202) and fecal consistency. Disease activity index (DAI) scores were a combination of weight loss (≥100%=0, 90-99%=1, 80-89%=2, […]), occult blood (no blood=0, blood=3), and fecal consistency (hard=0, soft=1, softer=2, runny=3), with a possible daily maximum score of 9. […] At the experimental endpoint, mice were euthanized, and colon lengths were measured from the base of the cecum to the rectum using digital calibrators. To determine immunization efficacy in a therapeutic colitis setting, colitis was first induced by administering one cycle of colitis achieved by 5 days of 2% DSS in water followed by 5 days of normal drinking water for a total of 10 days. Mice were monitored daily as described above until they on average regained their original body weight on day 20. At this point, i.p. immunizations were initiated and given three times over a 4-week period on days 20, 32, and 45, and colitis monitoring was reduced to twice weekly. An additional cycle of colitis was then induced on day 51 via 5 days of 2% DSS in water followed by 5 days of normal drinking water for a total of 10 days with daily monitoring. The entire therapeutic model ended on day 60, and colon lengths were measured as described above.
FITC-dextran Measurements. On the last day of the chronic and therapeutic DSS colitis models, mice were fasted overnight and then given 0.6 mg/g 3-5 KDa m.w. FITC-dextran (Sigma, FD4) in 100 μL of sterile 1×PBS via oral gavage. Serum samples were collected 3 h later at the experimental endpoint. To determine the intestinal barrier permeability, serum samples were diluted in 1×PBS and FITC fluorescence intensity was measured at an excitation of 488 nm and emission of 520 nm. Values were converted to pg/mL via a standard curve of FITC-dextran in serum.
Spleen Bacteria Measurements. At the conclusion of the DSS experiments, spleens were harvested and weighed followed by homogenization in 500 μL of 0.1% Triton X-100 in sterile 1×PBS using a Tissue Tearer handheld homogenizer (Biospec Products). 25 μL of homogenate solution was then spread on each quarter of culture plates consisting of tryptic soy broth No. 2 (Sigma, 51228) and Difco agar, granulated (BD Biosciences, 214530) in dilutions from 100 to 103. After a 48 hr incubation at 37° C., colony forming units (CFUs) were counted and converted to CFU/g of spleen tissue via the equations: […]
Colon IL-10 Quantification. At the conclusion of some DSS experiments, one half of the harvested mouse colons were flushed with PBS to remove fecal matter and flash frozen in liquid nitrogen. […]

[4] = 2% DSS, 3 cycles, 30 days, vs disease controls

In the case of “(C11H22NO6P)n-CCCCSGSG-QQKFQFQFEQQ-NH2 (CCCCSGSGQQKFQFQFEQQ-NH2; not fully specified; cysteine pairing not given here; also: phosphorylcholine groups (C11H22NO6P) n=1-4, attachment not placed) [PCM-Q11, linear multi-PC conjugate]”, the “ZO-1 levels in colon after immunization” value [1] is reported as “not significantly different”, the “occludin levels in colon after immunization” value [2] is reported as “not significantly different” and the “disease activity index (DAI) scores / disease severity” value [3, 4] is reported as “improved disease severity”. The weight loss [3, 4] was “reduced weight loss”, the “serum anti-PC IgG subclass responses at week 5” value ([3]; before DSS administration) was “skewed the subclass response towards non-inflammatory IgG1 with IgG2b also present” and the “IL-10 levels in colon homogenates” value ([3]; chronic colitis experiment 1) was “highest levels that were not significantly different from healthy controls”. For the same substance, the “colon length (colon shortening)” value ([3]; day 30, vs disease controls) was “diminished colon shortening” and the “serum anti-PC IgM” value ([3]; i.p. days −35, −21, −7, without CpG) was “did not induce anti-PC IgM within detection levels”.

— patent publication US20250281629A1, “COMPOSITIONS AND METHODS FOR ANTI-PHOSPHOCHOLINE ACTIVE IMMUNOTHERAPY” (Duke University, priority 2022, published 2025)
